Results from article PMC12838644, “Dihydrotanshinone as a Natural Product-Based CYP17A1 Lyase Inhibitor for Hyperandrogenic Disorders” (Biomolecules, 2026).
Like-named read-outs stand apart in the source and are kept apart here.

Experiments:
CYP17A1 17α-hydroxylase = biological target: T1, CYP17A1 17α-hydroxylase (Homo sapiens, UniProt P05093); experiment: CYP17A1 17α-hydroxylase activity assay (progesterone to 17OH-progesterone, reconstituted POR/CYP17A1); assay type: biochemical; conditions: for inhibition at 10 µM: read-out: % Inhibition CYP17A1-OH
T1 sequence (P05093 1-508): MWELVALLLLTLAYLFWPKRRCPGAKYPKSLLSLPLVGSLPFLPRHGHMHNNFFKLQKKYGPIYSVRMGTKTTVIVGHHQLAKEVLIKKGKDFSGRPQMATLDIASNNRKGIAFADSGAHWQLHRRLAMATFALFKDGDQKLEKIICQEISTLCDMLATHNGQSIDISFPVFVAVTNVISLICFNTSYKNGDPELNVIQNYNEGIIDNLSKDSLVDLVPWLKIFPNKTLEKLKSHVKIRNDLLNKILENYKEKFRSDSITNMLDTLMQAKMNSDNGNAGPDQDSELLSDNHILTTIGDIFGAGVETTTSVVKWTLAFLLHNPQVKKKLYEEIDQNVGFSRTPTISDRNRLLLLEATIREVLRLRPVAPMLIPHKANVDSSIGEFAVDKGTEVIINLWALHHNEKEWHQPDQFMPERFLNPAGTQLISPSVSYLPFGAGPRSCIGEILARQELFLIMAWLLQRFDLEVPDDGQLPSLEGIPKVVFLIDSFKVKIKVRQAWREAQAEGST
Procedure: Assay of CYP17A1 17α-hydroxylase and 17,20-lyase activities were performed as described previously. The 17α-hydroxylase activity was measured by conversion of progesterone to 17OH-progesterone, while production of DHEA from 17OH-pregnenolone was used for monitoring the 17,20-lyase activity of CYP17A1. In vitro CYP17A1 assays were performed using a liposome system consisting of human p450 oxidoreductase (POR) and CYP17A1 at a ratio of 3:4 (POR: CYP17A1). The final assay mixture consisted of proteins (37.5 […] CYP17A1), 10 mM MgCl2, 6 mM potassium acetate (KOAc), 0.05 mg/mL DLPC,1 mM reduced Glutathione in 50 mM HEPES-NaOH buffer (pH 7.4), and the reaction volume was 200 μL. The drugs were added to the final mixture and incubated for 1h before the catalytic reaction was initiated by the addition of NADPH to 1 mM final concentration. Radiolabeled [^14C]-progesterone (10,000 cpm in 1 µM) was used as a tracer in each reaction. Steroids were extracted and separated by thin-layer chromatography (TLC) on silica gel (SIL G/UV254) TLC plates (Macherey-Nagel, Oensingen, Switzerland) as previously described.

NCI-H295R cells = experiment: alamarBlue cytotoxicity assay, NCI-H295R; assay type: cell-based; conditions: Homo sapiens, read-out: NCI-H295R (IC50)
Procedure: (§1) RWPE-1 cells (ATCC: CRL-36O7) were cultured in keratinocyte serum-free media (K-SFM) supplemented with 0.05 mg/mL bovine pituitary extract and 5 ng/mL epidermal growth factor, and 1% penicillin (100 U/mL; Thermo Fisher Scientific, Waltham, MA, USA), and streptomycin (100 μg/mL; GIBCO). […] Passage numbers remained below 30 as per standard procedures. All cell lines were validated and characterized before use to ensure their authenticity and reliability. Routine mycoplasma testing was conducted to confirm that the cells were free from contamination. Additionally, key functional and morphological characteristics were assessed to verify their alignment with previously reported profiles.
(§2) The alamarBlue® assay (Thermo Fisher Scientific, Waltham, MA USA) was conducted as previously described. RWPE-1 cells, HEK-293 cells, and NCI-H295R cells were plated in 96-well plates at 10,000 cells per well and incubated overnight at 37 °C with 5% CO2. […] Cells were incubated for an additional 24 h. Cell viability was measured using the alamarBlue® assay. Post-incubation, 0.05 mg/mL alamarBlue® solution in phosphate-buffered saline (PBS) was added to each well. The plates were incubated in the dark at 37 °C with 5% CO2 for 4 h, and fluorescence was measured at an excitation wavelength of 540 nm and an emission wavelength of 590 nm. Cell viability was calculated relative to the control sample treated with DMSO. All experiments were conducted in triplicate.

RWPE-1 cells = experiment: alamarBlue cytotoxicity assay, RWPE-1; assay type: cell-based; conditions: Homo sapiens, read-out: RWPE-1 (IC50)
Procedure: as §1, §2

HEK-293T cells = experiment: alamarBlue cytotoxicity assay, HEK-293T; assay type: cell-based; conditions: Homo sapiens, read-out: HEK-293T (IC50)
Procedure: as §1, §2

[1] = 10 µM (SM extract 10 µg/mL), calculated as 100% − % residual activity
[2] = cytotoxicity, alamarBlue, 24 h incubation, mean ± SD, three experiments
[3] = RWPE-1, cytotoxicity, alamarBlue, 24 h incubation, mean ± SD, three experiments

| SMILES | Residual 17α-hydroxylase activity (CYP17A1 17α-hydroxylase; % of DMSO control, 10 µM (SM extract 10 µg/mL)) [%] | inhibition at 10 µM (CYP17A1 17α-hydroxylase) [%] | IC50 (NCI-H295R cells; 24 h) [nM] | IC50 (RWPE-1 cells; RWPE-1, 24 h) [nM] | IC50 (HEK-293T cells; 24 h) [nM] | inhibition at 10 µM (CYP17A1 17α-hydroxylase; [1]) [%] | IC50 (NCI-H295R cells; [2]) [nM] | IC50 (RWPE-1 cells; [3]) [nM] | IC50 (HEK-293T cells; [2]) [nM] |
| --- | --- | --- | --- | --- | --- | --- | --- | --- | --- |
| Cc1cccc2c3c(ccc12)C1=C(C(=O)C3=O)[C@@H](C)CO1 [DT, dihydrotanshinone I] | > 93 | 6.5 | 950 ± 480 | 1400 ± 420 | 1310 ± 470 | – | – | – | – |
| Cc1coc2c1C(=O)C(=O)c1c-2ccc2c(C)cccc12 [TAI, tanshinone I] | – | – | – | – | – | < 1 | 1130 ± 630 | 2270 ± 3250 | 1080 ± 260 |
| Cc1coc2c1C(=O)C(=O)c1c-2ccc2c1CCCC2(C)C [TAII, tanshinone IIA] | – | – | – | – | – | < 1 | 1200 ± 3440 | 4500 ± 11800 | 2260 ± 1920 |
